# Measured values published in patent US20260199320A1, “COMBINATION THERAPIES FOR TREATING CANCER” (INSTITUTE FOR CANCER RESEARCH D/B/A THE RESEARCH INSTITUTE …, priority 2022, published 2026).
# pIC50: −log10 of the molar value. Read-outs that look alike come from different tables or passages of the source.
# Test system: HEP 3B Hepatocellular Carcinoma
# Test: Cell viability by CellTiter Blue assay, CalcuSyn 2.0 combination analysis, HEP 3B
# Conditions: for Dose Sor: Sor alone; for pIC50: Homo sapiens, Hep3B; for Dose Len: Len alone; for Dose Lon: Lon alone
# Protocol: Cell viability was analyzed by CellTiter Blue assay. ED, effective dose. The data analysis was performed using CalcuSyn 2.0 software. […] CI 0.85-0.9: slight synergism; CI 0.7-0.85: moderate synergism; CI 0.3-0.7: synergism; CI 0.1-0.3: strong synergism; CI<0.1: very strong synergism.
structure (smiles),measurement,setting,value
"CNC(=O)c1cc(Oc2ccc(NC(=O)Nc3ccc(Cl)c(C(F)(F)F)c3)cc2)ccn1 [Sor, Sorafenib]",Effect,Dose 1.0 uM,0.05824
same,Effect,Dose 2.0 uM,0.1667
same,Effect,Dose 4.0 uM,0.4078
same,Effect,Dose 6.0 uM,0.6762
same,Effect,Dose 8.0 uM,0.8681
same,Effect,Dose 1.0E−4 uM,1.0E−4
same,Dose Sor,Fa 0.05,0.1769 µM
same,Dose Sor,Fa 0.1,0.4116 µM
same,Dose Sor,Fa 0.15,0.6944 µM
same,Dose Sor,Fa 0.2,1.029 µM
same,Dose Sor,Fa 0.25,1.425 µM
same,Dose Sor,Fa 0.3,1.893 µM
same,Dose Sor,Fa 0.34468 (experimental point),2.386 µM
same,Dose Sor,Fa 0.35,2.451 µM
same,Dose Sor,Fa 0.37774 (experimental point),2.806 µM
same,Dose Sor,Fa 0.4,3.12 µM
same,Dose Sor,Fa 0.45,3.933 µM
same,Dose Sor,Fa 0.5,4.934 µM
same,Dose Sor,Fa 0.55,6.19 µM
same,Dose Sor,Fa 0.6,7.803 µM
same,Dose Sor,Fa 0.60837 (experimental point),8.118 µM
same,Dose Sor,Fa 0.65,9.934 µM
same,Dose Sor,Fa 0.7,12.8580 µM
same,Dose Sor,Fa 0.75,17.0827 µM
same,Dose Sor,Fa 0.8,23.6479 µM
same,Dose Sor,Fa 0.84428 (experimental point),33.3507 µM
same,Dose Sor,Fa 0.85,35.0585 µM
same,Dose Sor,Fa 0.9,59.1449 µM
same,Dose Sor,Fa 0.93635 (experimental point),103.075 µM
same,Dose Sor,Fa 0.95,137.645 µM
same,Dose Sor,Fa 0.97,251.060 µM
same,Dose Sor,Fa 1.0E−4 (experimental point),0.000148 µM
same,IC50,"read-out: Dm, CalcuSyn median-effect fit, single drug dosed in uM",4.93 µM
"COc1cc2nccc(Oc3ccc(NC(=O)NC4CC4)c(Cl)c3)c2cc1C(N)=O [Len, Lenvatinib]",Effect,Dose 1.0 uM,0.3487
same,Effect,Dose 2.0 uM,0.5908
same,Effect,Dose 4.0 uM,0.6835
same,Effect,Dose 6.0 uM,0.706
same,Effect,Dose 8.0 uM,0.7316
same,Effect,Dose 1.0E−4 uM,1.0E−4
same,pIC50,read-out: Dm,5.70
same,Dose Len,Fa 0.05,0.08241 µM
same,Dose Len,Fa 0.1,0.1847 µM
same,Dose Len,Fa 0.15,0.3044 µM
same,Dose Len,Fa 0.2,0.4435 µM
same,Dose Len,Fa 0.25,0.605 µM
same,Dose Len,Fa 0.3,0.7937 µM
same,Dose Len,Fa 0.35,1.016 µM
same,Dose Len,Fa 0.4,1.279 µM
same,Dose Len,Fa 0.45,1.596 µM
same,Dose Len,Fa 0.48908 (experimental point),1.891 µM
same,Dose Len,Fa 0.5,1.982 µM
same,Dose Len,Fa 0.55,2.462 µM
same,Dose Len,Fa 0.6,3.071 µM
same,Dose Len,Fa 0.65,3.868 µM
same,Dose Len,Fa 0.66115 (experimental point),4.08 µM
same,Dose Len,Fa 0.7,4.949 µM
same,Dose Len,Fa 0.75,6.493 µM
same,Dose Len,Fa 0.76439 (experimental point),7.066 µM
same,Dose Len,Fa 0.79346 (experimental point),8.481 µM
same,Dose Len,Fa 0.8,8.859 µM
same,Dose Len,Fa 0.83864 (experimental point),11.7543 µM
same,Dose Len,Fa 0.85,12.9048 µM
same,Dose Len,Fa 0.9,21.2693 µM
same,Dose Len,Fa 0.95,47.6701 µM
same,Dose Len,Fa 0.97,84.6505 µM
same,Dose Len,Fa 1.0E−4 (experimental point),9.48e-05 µM
"NC(=O)N1CCC(CC(=O)N2CCC([C@H]3c4ncc(Br)cc4CCc4cc(Cl)cc(Br)c43)CC2)CC1 [Lon, Lonafarnib]",Effect,Dose 100.0 nM,0.2171
same,Effect,Dose 200.0 nM,0.2792
same,Effect,Dose 400.0 nM,0.3124
same,Effect,Dose 600.0 nM,0.3247
same,Effect,Dose 800.0 nM,0.3747
same,Effect,Dose 1.0E−4 nM,1.0E−4
same,pIC50,read-out: Dm,5.81
same,Dose Lon,Fa 0.05,7.632 nM
same,Dose Lon,Fa 0.1,29.4334 nM
same,Dose Lon,Fa 0.15,67.8864 nM
same,Dose Lon,Fa 0.2,127.362 nM
same,Dose Lon,Fa 0.25,214.159 nM
same,Dose Lon,Fa 0.3,337.210 nM
same,Dose Lon,Fa 0.34468 (experimental point of LonSor),488.163 nM
same,Dose Lon,Fa 0.35,509.303 nM
same,Dose Lon,Fa 0.37774 (experimental point of LonSor),632.458 nM
same,Dose Lon,Fa 0.4,749.086 nM
same,Dose Lon,Fa 0.45,1084.42 nM
same,Dose Lon,Fa 0.48908 (experimental point of LonLen),1439.98 nM
same,Dose Lon,Fa 0.5,1558.23 nM
same,Dose Lon,Fa 0.55,2239.05 nM
same,Dose Lon,Fa 0.6,3241.39 nM
same,Dose Lon,Fa 0.60837 (experimental point of LonSor),3452.95 nM
same,Dose Lon,Fa 0.65,4767.46 nM
same,Dose Lon,Fa 0.66115 (experimental point of LonLen),5212.31 nM
same,Dose Lon,Fa 0.7,7200.51 nM
same,Dose Lon,Fa 0.75,11337.8 nM
same,Dose Lon,Fa 0.76439 (experimental point of LonLen),13060.1 nM
same,Dose Lon,Fa 0.79346 (experimental point of LonLen),17723.1 nM
same,Dose Lon,Fa 0.8,19064.4 nM
same,Dose Lon,Fa 0.83864 (experimental point of LonLen),30595.1 nM
same,Dose Lon,Fa 0.84428 (experimental point of LonSor),33023.4 nM
same,Dose Lon,Fa 0.85,35766.8 nM
same,Dose Lon,Fa 0.9,82494.1 nM
same,Dose Lon,Fa 0.93635 (experimental point of LonSor),200408. nM
same,Dose Lon,Fa 0.95,318153. nM
same,Dose Lon,Fa 0.97,831265. nM
same,Dose Lon,Fa 1.0E−4 (experimental point),9.27e-05 nM
